# Reference: ChEMBL document CHEMBL4229418, “Design, synthesis and pharmacology of aortic-selective acyl-CoA: Cholesterol O-acyltransferase (ACAT/SOAT) inhibitors” (Bioorg Med Chem, 2018)
# Experiments:
# [1] = Inhibition of SOAT1 in arterial homogenates isolated from 1% cholesterol fed New Zealand white rabbit assessed as reduction in cholesteryl oleate formation incubated for 5 mins in presence of [14C]-oleoyl-CoA and BSA complex by TLC method; assay type: tissue-based, Oryctolagus cuniculus
# [2] = Inhibition of SOAT2 in New Zealand white rabbit intestinal microsomes assessed as reduction in cholesteryl oleate formation incubated for 5 mins in presence of [14C]-oleoyl-CoA and BSA complex by TLC method; parameters: species or system Oryctolagus cuniculus, Intestine
# [3] = organism: Oryctolagus cuniculus; assay: Selectivity ratio of IC50 for inhibition of SOAT2 in New Zealand white rabbit intestinal microsomes to IC50 for inhibition of SOAT1 in arterial homogenates isolated from 1% cholesterol fed New Zealand white rabbit
# [4] = target: T1, Sterol O-acyltransferase 1 (Mus musculus, UniProt Q61263); assay: Inhibition of ACAT1 in mouse J774 cells assessed as reduction in esterified cholesterol accumulation after 18 hrs in presence of 25-hydroxycholesterol; assay type: cell-based
# T1 sequence (Q61263 whole entry): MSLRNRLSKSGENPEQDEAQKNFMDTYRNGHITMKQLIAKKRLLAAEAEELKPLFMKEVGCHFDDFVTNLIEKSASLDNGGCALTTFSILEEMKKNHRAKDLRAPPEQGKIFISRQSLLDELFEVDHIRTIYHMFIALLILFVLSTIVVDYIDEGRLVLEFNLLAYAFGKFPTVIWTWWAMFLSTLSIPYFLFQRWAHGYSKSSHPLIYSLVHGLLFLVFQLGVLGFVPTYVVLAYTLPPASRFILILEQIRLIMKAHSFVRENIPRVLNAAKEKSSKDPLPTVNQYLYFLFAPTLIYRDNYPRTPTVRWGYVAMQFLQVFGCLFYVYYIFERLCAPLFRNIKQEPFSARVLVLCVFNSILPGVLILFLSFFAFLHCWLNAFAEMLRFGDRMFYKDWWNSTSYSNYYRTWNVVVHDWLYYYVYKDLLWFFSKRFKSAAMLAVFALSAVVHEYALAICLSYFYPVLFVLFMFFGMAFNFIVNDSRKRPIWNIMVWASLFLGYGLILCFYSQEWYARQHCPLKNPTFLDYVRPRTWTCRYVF
IC50 [1] [nM],IC50 [2] [nM],IC50 [4] [nM],SMILES,Ratio IC50 [3]
2100,5000,4400,CC(C)c1cccc(C(C)C)c1NC(=O)CCCCCSc1nc2ccc(C(=O)O)cc2o1,2.4
36,20,820,CCCCCCCN(CCCCCSc1nc(-c2ccccc2)c(-c2ccccc2)[nH]1)C(=O)Nc1ccc(F)cc1F [LECIMIBIDE],
5,30,,CC(C)c1cccc(C(C)C)c1NC(=O)CCCCCCSc1nc2ccccc2o1,6
18,,30,CC(C)c1cccc(C(C)C)c1NC(=O)CCCCCCCSc1nc2ccccc2[nH]1,1.7
,,11000,CC(C)c1cccc(C(C)C)c1NC(=O)CCCCCSc1nc2c(C(=O)O)cccc2o1,
42,320,,CC(C)c1cccc(C(C)C)c1NC(=O)CCCCCSc1nc2c(CN(C)C)cccc2o1,7.6
32,330,100,COC(=O)c1cccc2nc(SCCCCCC(=O)Nc3c(C(C)C)cccc3C(C)C)oc12,10.3
3600,4500,11000,CC(C)c1cccc(C(C)C)c1NC(=O)CCCCCSc1nc2cc(C(=O)O)ccc2o1,1.3
70,210,,COC(=O)c1ccc2oc(SCCCCCC(=O)Nc3c(C(C)C)cccc3C(C)C)nc2c1,3
41,160,4100,CC(C)c1cccc(C(C)C)c1NC(=O)CCCCCSc1nc2ccncc2o1,3.9
64,74,1100,CC(C)c1cccc(C(C)C)c1NC(=O)CCCCCSc1nc2cc(CO)ccc2o1,1.2
28,140,100,CC(C)c1cccc(C(C)C)c1NC(=O)CCCCCSc1nc2cc(C(F)(F)F)ccc2o1,5
390,430,5200,CC(C)c1cccc(C(C)C)c1NC(=O)CCCCSc1nc2ccccc2[nH]1,1.1
5,11,570,CC(C)c1cccc(C(C)C)c1NC(=O)CCCCCCCCCSc1nc2ccccc2s1,2.2
7,36,59,CC(C)c1cccc(C(C)C)c1NC(=O)CCCCCCCSc1nc2ccccc2s1,5.1
96,130,5600,CC(C)c1cccc(C(C)C)c1NC(=O)CCCCCSc1nc2cccc(CN(C)C)c2o1,1.4
29,110,500,COC(=O)c1ccc2nc(SCCCCCC(=O)Nc3c(C(C)C)cccc3C(C)C)oc2c1,3.8
24,34,48,CC(C)c1cccc(C(C)C)c1NC(=O)CCCCCCSc1nc2ccccc2[nH]1,1.4
56,110,2200,CC(C)c1cccc(C(C)C)c1NC(=O)CCCCCSc1nc2cccc(CO)c2o1,2

IC50 [1] [nM],IC50 [2] [nM],IC50 [4] [nM],SMILES,Ratio IC50 [3]
300,800,3100,CC(C)c1cccc(C(C)C)c1NC(=O)CCCSc1nc2ccccc2[nH]1,2.7
15,94,1100,CC(C)c1cccc(C(C)C)c1NC(=O)CCCCCSc1nc2ccc(N(C)C)cc2o1,6.3
240,240,8800,CC(C)c1cccc(C(C)C)c1NC(=O)CCCCCSc1nc2c(O)cccc2o1,1
45,150,2800,CC(C)c1cccc(C(C)C)c1NC(=O)CCCCCSc1nc2cnccc2o1,3.3
35,200,,CC(C)c1cccc(C(C)C)c1NC(=O)CSc1nc2ccccc2o1,5.7
28,100,,CC(C)c1cccc(C(C)C)c1NC(=O)CCCSc1nc2ccccc2s1,3.6
25,140,,CC(C)c1cccc(C(C)C)c1NC(=O)CCCCCSc1nc2ncccc2o1,
8600,,,CC(=O)Nc1c(C(C)C)cccc1C(C)C,
4,18,43,CC(C)c1cccc(C(C)C)c1NC(=O)CCCCCCCCSc1nc2ccccc2s1,4.5
53,81,2300,CC(C)c1cccc(C(C)C)c1NC(=O)CCCCCSc1nc2ccc(O)cc2o1,1.5
15,,,CC(C)c1cccc(C(C)C)c1NC(=O)CCSc1nc2ccccc2o1,
,,11000,CC(C)c1cccc(C(C)C)c1NC(=O)CCCCCSc1nc2cccc(C(=O)O)c2o1,1
14,31,300,CC(C)c1cccc(C(C)C)c1NC(=O)CCCCCCCCSc1nc2ccccc2[nH]1,2.2
7,28,410,CC(C)c1cccc(C(C)C)c1NC(=O)CCCCCCSc1nc2ccccc2s1,4
34,110,400,Cc1ccc2nc(SCCCCCC(=O)Nc3c(C(C)C)cccc3C(C)C)oc2c1,3.2
45,180,11000,CC(C)c1cccc(C(C)C)c1NC(=O)CCCCCSc1nc2c(CO)cccc2o1,4
130,370,2400,CC(C)c1cccc(C(C)C)c1NC(=O)CCCCCSc1nc2ccc(CN(C)C)cc2o1,2.8
120,44,1700,CC(C)c1cccc(C(C)C)c1NC(=O)CCCCCCCCCCCCCCSc1nc2ccccc2[nH]1,0.4
36,,2800,CC(C)c1cccc(C(C)C)c1NC(=O)CCCSc1nc2ccccc2o1,

IC50 [1] [nM],IC50 [2] [nM],IC50 [4] [nM],SMILES,Ratio IC50 [3]
4,22,40,CC(C)c1cccc(C(C)C)c1NC(=O)CCCCCCCSc1nc2ccccc2o1,5.5
26000,,,CCCCSc1nc2ccccc2o1,
2300,5800,180,CC(C)c1cccc(C(C)C)c1NC(=O)CSc1nc2ccccc2[nH]1,2.5
250,170,1800,CC(C)c1cccc(C(C)C)c1NC(=O)CCCCCSc1nc2cc(CN(C)C)ccc2o1,0.7
29,120,500,CC(C)c1cccc(C(C)C)c1NC(=O)CCCCCSc1nc2c(N(C)C)cccc2o1,4.1
84,220,3600,CC(C)c1cccc(C(C)C)c1NC(=O)CCCCSc1nc2ccccc2o1,2.6
31,47,180,CC(C)c1cccc(C(C)C)c1NC(=O)CSc1nc2ccccc2s1,1.5
62,130,57000,CC(C)c1cccc(C(C)C)c1NC(=O)CCCCSc1nc2ccccc2s1,2.1
43,120,2800,CC(C)c1cccc(C(C)C)c1NC(=O)CCCCCSc1nc2cc(O)ccc2o1,2.8
24,36,3000,CC(C)c1cccc(C(C)C)c1NC(=O)CCCCCSc1nc2cccnc2o1,1.5
26,33,5200,CC(C)c1cccc(C(C)C)c1NC(=O)CCCCCSc1nc2ccccc2s1,1.3
170,,,CCCCCC(=O)Nc1c(C(C)C)cccc1C(C)C,
40,44,410,CC(C)c1cccc(C(C)C)c1NC(=O)CCCCCCCCCCCCCCSc1nc2ccccc2o1,1.1
43,250,500,CC(C)c1cccc(C(C)C)c1NC(=O)CCCCCSc1nc2cc(N(C)C)ccc2o1,5.8
4,19,280,CC(C)c1cccc(C(C)C)c1NC(=O)CCSc1nc2ccccc2s1,4.8
88,93,1800,CC(C)c1cccc(C(C)C)c1NC(=O)CCCCCCCCCCCCCCSc1nc2ccccc2s1,1.1
26,38,350,CC(C)c1cccc(C(C)C)c1NC(=O)CCCCCSc1nc2ccccc2[nH]1,1.5
31000,,,CSc1nc2ccccc2o1,
